Data as given in PMC10287695, “Non-covalent inhibitors of thioredoxin glutathione reductase with schistosomicidal activity in vivo” (Nature Communications, 2023).
Several values for one entry are separate records, joined by “and”; a condition that tells them apart may be missing. Equal values may be shown once. Read-outs that look alike come from different tables or passages of the source.

Columns and labels:
[1] = biological target: T1, TGR (Schistosoma mansoni, UniProt Q962Y6); assay: NADPH dependence of inhibition; format: biochemical; set-up: unit not given here; details: panel b, replicates; for Rate, no NADPH: preincubation no NADPH; for Rate, with NADPH: preincubation with NADPH
T1 construct: made in house
T1 sequence (Q962Y6 1-598): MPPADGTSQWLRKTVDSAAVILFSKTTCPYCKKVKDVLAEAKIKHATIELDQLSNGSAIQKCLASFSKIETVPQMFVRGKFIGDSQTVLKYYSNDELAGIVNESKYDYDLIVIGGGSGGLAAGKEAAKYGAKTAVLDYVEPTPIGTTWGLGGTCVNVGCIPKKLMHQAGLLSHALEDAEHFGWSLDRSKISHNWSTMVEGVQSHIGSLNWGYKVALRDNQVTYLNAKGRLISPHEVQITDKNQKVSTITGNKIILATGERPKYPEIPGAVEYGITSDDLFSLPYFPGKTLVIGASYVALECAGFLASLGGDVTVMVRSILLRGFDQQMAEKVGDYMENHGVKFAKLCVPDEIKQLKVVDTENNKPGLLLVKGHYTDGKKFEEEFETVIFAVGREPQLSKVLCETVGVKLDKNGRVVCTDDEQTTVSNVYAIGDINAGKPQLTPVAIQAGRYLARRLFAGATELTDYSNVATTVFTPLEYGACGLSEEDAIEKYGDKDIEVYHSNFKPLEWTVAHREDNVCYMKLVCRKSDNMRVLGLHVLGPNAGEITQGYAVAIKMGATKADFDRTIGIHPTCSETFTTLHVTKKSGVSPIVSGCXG
Protocol: TGR was incubated at room temperature with inhibitor in the presence or absence of 100 µM NADPH for 15 min. DTNB (3 mM) and NADPH (100 µM) were added, and the reaction was monitored at A412 for 5 min to determine reaction rate. The assay was done in triplicate.

[2] = biological target: T1, TGR; format: biochemical, S. mansoni; details: for mode of inhibition (NADPH varied): steady state
Protocol: Master mixes with varying concentrations of NADPH were made, each with 2 nM TGR in reaction buffer. Inhibitor (2 µl) was added to a 96 well microplate in triplicate for each NADPH and inhibitor concentration, and 192 µl of the master buffer was added to each well. The reaction incubated for 15 min and 6 µl of 50 mM DTNB was added to each well. The kinetic rate was measured at A412 for 5 min.

[3] = inhibitor 3 µM, NADPH 3 (unit not given)
[4] = inhibitor 3 µM, NADPH 10 (unit not given)
[5] = inhibitor 3 µM, NADPH 30 (unit not given)
[6] = inhibitor 3 µM, NADPH 100 (unit not given)
[7] = inhibitor 3 µM, NADPH 300 (unit not given)
[8] = inhibitor 10 µM, NADPH 3 (unit not given)
[9] = inhibitor 10 µM, NADPH 10 (unit not given)
[10] = inhibitor 10 µM, NADPH 30 (unit not given)
[11] = inhibitor 10 µM, NADPH 100 (unit not given)
[12] = inhibitor 10 µM, NADPH 300 (unit not given)
[13] = inhibitor 30 µM, NADPH 3 (unit not given)
[14] = inhibitor 30 µM, NADPH 10 (unit not given)
[15] = inhibitor 30 µM, NADPH 30 (unit not given)
[16] = inhibitor 30 µM, NADPH 100 (unit not given)
[17] = inhibitor 30 µM, NADPH 300 (unit not given)
[18] = inhibitor 0.6 µM, NADPH 10 (unit not given)
[19] = inhibitor 0.6 µM, NADPH 30 (unit not given)
[20] = inhibitor 0.6 µM, NADPH 100 (unit not given)
[21] = inhibitor 0.6 µM, NADPH 300 (unit not given)

Row | Structure (SMILES) | Rate, no NADPH [1] | Rate, with NADPH [1] | Vmax ([2]; 10 µM fast inhibitor) | Vmax ([2]; 30 µM fast inhibitor) | Rate, single replicate [2, 9] | avg rate [2, 9] | Rate, single replicate [2, 10] | avg rate [2, 10] | Rate, single replicate [2, 11] | avg rate [2, 11] | Rate, single replicate [2, 12] | avg rate [2, 12] | Rate, single replicate [2, 14] | avg rate [2, 14] | Rate, single replicate [2, 15] | avg rate [2, 15] | Rate, single replicate [2, 16] | avg rate [2, 16] | Rate, single replicate [2, 17] | avg rate [2, 17] | also measured
1 | Cc1oc(C2CCCCC2)nc1C(=O)N[C@@H]1C[C@@H]2C[C@H]([C@H]1C)C2(C)C [Compound 7] | 0.05983 and 0.05966 and 0.05987 | 0.003086 and 0.003742 and 0.002131 | 0.023 ± 0.0006 ΔA412/min | 0.005 ± 0.0004 ΔA412/min | 0.014 and 0.01379 and 0.01325 | 0.01368 | 0.01713 and 0.02008 | 0.01811 | 0.02098 and 0.02124 and 0.02207 | 0.02143 | 0.009276 and 0.01989 and 0.01984 | 0.01634 | 0.004132 and 0.003931 and 0.003739 | 0.003934 | 0.004888 and 0.004427 and 0.004285 | 0.004533 | 0.005567 and 0.005953 and 0.005104 | 0.005541 | 0.006433 and 0.00613 and 0.007161 | 0.006575 | Vmax ([2]; 3 µM fast inhibitor): 0.037 ± 0.0031 ΔA412/min; Rate, single replicate [2, 3]: 0.004865 and 0.004625 and 0.005262; avg rate [2, 3]: 0.004917; Rate, single replicate [2, 4]: 0.01865 and 0.01872 and 0.01883; avg rate [2, 4]: 0.01873; Rate, single replicate [2, 5]: 0.02703 and 0.02752 and 0.02778; avg rate [2, 5]: 0.02744; Rate, single replicate [2, 6]: 0.03299 and 0.03283 and 0.0326; avg rate [2, 6]: 0.03281; Rate, single replicate [2, 7]: 0.02949 and 0.03026 and 0.03016; avg rate [2, 7]: 0.02997; Rate, single replicate [2, 8]: 0.006166 and 0.006168 and 0.006055; avg rate [2, 8]: 0.00613; Rate, single replicate [2, 13]: 0.002823 and 0.003641; avg rate [2, 13]: 0.003232; mode of inhibition (NADPH varied) [2]: uncompetitive inhibition; mode of inhibition (NADPH varied) ([2]; listed as 7 (9VP108)): uncompetitive behavior
2 | C[C@@H]1[C@H]2C[C@@H](C[C@H]1NCc1nc3ccccc3n1C1CCCCCC1)C2(C)C [Compound 8] | 0.045 and 0.0455 | 0.006 and 0.0015 and 0.0024 | 0.0091 ± 0.0007 ΔA412/min | 0.0067 ± 7E-5 ΔA412/min | 0.007669 and 0.006838 and 0.009131 | 0.007879 | 0.005991 and 0.006991 and 0.01256 | 0.008514 | 0.006895 and 0.007479 and 0.009519 | 0.007964 | 0.01018 and 0.009394 and 0.01058 | 0.01005 | 0.00609 and 0.005955 and 0.006026 | 0.006024 | 0.006205 and 0.005206 and 0.007748 | 0.006386 | 0.006944 and 0.006279 and 0.006539 | 0.006587 | 0.005974 and 0.006732 and 0.007751 | 0.006819 | Vmax ([2]; 0.6 µM fast inhibitor): 0.05 ± 0.0017 ΔA412/min; Rate, single replicate [2, 18]: 0.02362 and 0.02203 and 0.02232; avg rate [2, 18]: 0.02266; Rate, single replicate [2, 19]: 0.03949 and 0.03661 and 0.03778; avg rate [2, 19]: 0.03796; Rate, single replicate [2, 20]: 0.04159 and 0.0438 and 0.04407; avg rate [2, 20]: 0.04315; Rate, single replicate [2, 21]: 0.04835 and 0.04882 and 0.0495; avg rate [2, 21]: 0.04889; mode of inhibition (NADPH varied) [2]: uncompetitive inhibition; mode of inhibition (NADPH varied) ([2]; listed as 8 (9VP173)): uncompetitive behavior
